± gives the expanded uncertainty stated by the source.
Settings: Liquid, Ebulliometric method (Recirculating still)

| Compound | vapor or sublimation pressure (337.42 K) | vapor or sublimation pressure (329 K) |
| --- | --- | --- |
| CO [methanol] | 100 ± 0.7 kPa | – |
| CC(C)=O [acetone] | – | 100 ± 0.7 kPa |

Source: the NIST ThermoML archive (doi:10.1021/je200972w)
